Experimental data: patent US8642631B2, “Methods of treating mammals with eustachian tube dysfunctions” (University of Melbourne, priority 2008, dated 2014)

Tested on: Eustachian tube
Assay: Eustachian tube function test (middle ear pressure equalisation on reflex swallowing) in anaesthetised rats
Format: in vivo, Sprague Dawley rats
Method: Animal experiments were conducted on female and male adult Sprague Dawley rats weighing 250-450 g. Up to five animals were used in each section of the experiment. In this figure, a small tube is glued into the tympanic bulla of an anaesthetised rat (A). The tube is connected to a syringe pump (B), a pressure transducer (C) and data recorder (D) and to a manometer (E). The syringe pump is used to increase pressure within the middle ear. […] From this it can be seen that intra-bulla pressure was increased from ambient (Amb) to around 130 mm of water. […] The overall pressure drop is a measure of the efficiency of pressure equalisation via the Eustachian tube. Each experiment consisted of a series of active Eustachian tube function tests preceded by a passive run. In the passive run pressure was increased in the bulla by a continuous air flow (30 ml/min) until the Eustachian tube opened spontaneously. While the air continued to flow, the pressure in the middle ear decreased until the Eustachian tube closed. Now the pressure in the middle ear, due to continued air flow, could build up again until the Eustachian tube opened a second time. This enabled the measurement of the passive opening and closing pressures of the Eustachian tube. The active runs consisted of three preceding control runs (C1-C3) followed by three runs assessing the effect of intervention S1-S6. At the start of each active run the pressure in the bulla was raised to 75% of the passive opening pressure of the Eustachian tube. At this point the air flow into the bulla was stopped. […] This caused reflex swallowing, which was accompanied by a momentary opening of the Eustachian tube, and reduced middle ear pressure step by step. In each active run 10 consecutive swallows were recorded. […]

## CNCCc1ccccn1 [betahistine, N-methyl-2-pyridineethanaamine]
Anaesthetised rats, betahistine applied within the tympanic bulla and flushed through the Eustachian tube, FIG. 4
  increase in efficiency of Eustachian tube pressure equalisation: around 30%
Anaesthetised rats, systemic (intraperitoneal) injection, cumulative doses 1, 5 and 10 μl, total 16 μl, FIG. 5
  effect on ET function: no significant effect
Healthy anaesthetised rats, betahistine diHCl 5 μl of 8 mg/mL (Vasomotal) applied to the nasopharynx, normalized to control measurement C3, FIG. 3
  increase in efficiency of pressure equalisation through the Eustachian tube: 31%
